According to patent US10900093B2, “Molecular marker of plasmodium falciparum artemisinin resistance” (priority 2013, dated 2021):

Columns and labels:
Format in all cases: cell-based, Plasmodium falciparum
[1] = system: F32-ART5 parasite line (0-3h post-invasion ring-stage parasites); test: Ring-stage Survival Assay (RSA0-3h), F32-ART5 lineage; conditions: for RSA0-3h survival rate (median): 700 nM DHA for 6 h, n=3
Procedure: (§1) The Ring-stage Survival Assay (RSA^0-3h) was carried out as described by Witkowski et al^13 using highly synchronous parasite cultures. In brief, 0-3h post-invasion ring-stage parasites were exposed to 700 nM DHA [dihydroartemisinin, obtained from WWARN (www.wwarn.org/research/tools/qaqc)] or its solvent DMSO for 6 h, washed and then cultivated for the next 66 h without drug. Survival rates were assessed microscopically by counting in Giemsa-stained thin smears the proportion of viable parasites that developed into second-generation rings or trophozoites with normal morphology.
(§2) The F32-ART5 samples tested in the Ring-stage Survival Assay (RSA^0-3h) were collected at the time of the 17th, 48th and 122nd pressure cycles (0.04, 2.7 and 9 μM ART), respectively. The F32-TEM sample was collected at the last mock pressure cycle. The RSA0-3h survival rates were determined in triplicate experiments with different batches of red blood cells, and evaluated as above using Giemsa-stained thin smears read by two independent microscopists (B. W. and F. B.-V.). Survival rates were compared using Mann-Whitney U test. […] The RSA^0-3h survival rate of the F32-TEM line was also determined in triplicate experiments (n=3, median 0%, IQR 0-0.05, P=0.81 for #TEM vs. #17, Mann-Whitney U test).

[2] = system: F32-TEM line (0-3h post-invasion ring-stage parasites); test: Ring-stage Survival Assay (RSA0-3h), F32-TEM line; conditions: last mock pressure cycle, 700 nM DHA for 6 h, n=3
Procedure: as §1, §2

[3] = system: Cambodian parasite isolates (0-3h post-invasion ring-stage parasites); test: Ring-stage Survival Assay (RSA0-3h), culture-adapted Cambodian parasite isolates stratified by K13-propeller allele
Procedure: Fifty clinical P. falciparum isolates from Cambodia (collected in 2010 and 2011) were adapted to in vitro culture as described by Witkowski et al.^45. […] Parasite DNA was extracted from frozen blood aliquots (200 μl) using the Mini blood kit (Qiagen).
as §1

3D7 parasites = test: Ring-stage Survival Assay (RSA0-3h), control 3D7 parasites
Procedure: as §1

C[C@H]1[C@@H](O)O[C@@H]2O[C@@]3(C)CC[C@H]4[C@H](C)CC[C@@H]1[C@@]24OO3 [DHA, dihydroartemisinin]
RSA0-3h survival rate (median) ([1]; F32-ART5 at drug-pressure cycle #17): 0%
RSA0-3h survival rate (median) ([1]; F32-ART5 at drug-pressure cycle #48): 11.7%
RSA0-3h survival rate (median) ([1]; F32-ART5 at drug-pressure cycle #122): 12.8%
RSA0-3h survival rate ([1]; F32-ART5 lineage after appearance of PF3D7_0110400 D56V and PF3D7_1343700 M476I mutations): 12.8%
RSA0-3h survival rate ([1]; F32-ART5 lineage before appearance of PF3D7_0110400 D56V and PF3D7_1343700 M476I mutations): less than 0.01%
RSA0-3h survival rate (median) [2]: 0%
RSA0-3h survival rate (median) ([3]; isolates with wildtype K13-propeller alleles, n=16): 0.17%
RSA0-3h survival rate (median) ([3]; wildtype K13-propeller, n=17 (FIG. 2), 700 nM DHA for 6 h): 0.16%
RSA0-3h survival rate (median) ([3]; {}): 18.8%
RSA0-3h survival rates (range) ([3]; {}): 3.8%-58%
RSA0-3h survival rate (3D7 parasites): 0.04%
